Source: patent publication US20230172825A1, “COMPOSITION FOR IMPROVING SKIN COMPRISING AMINO ACID COMPLEX AS ACTIVE INGREDIENT” (NATURE IN LAB. INC., priority 2021, published 2023)

Key:
Assay type in all cases: cell-based, human
[1] = test system: MMP-1; test: Inhibition of MMP-1 gene expression in UVA-damaged cells (real-time PCR); conditions: UVA-irradiated CCD-1064Sk, 24 hours, concentration 1 µg/mℓ; UVA alone 100.0, control group 50.5
Method: Human dermal fibroblasts (CCD-1064Sk, ATCC® CRL-2076™) were inoculated into a 60-mm dish using IMDM (Welgene, Korea) and cultured for 24 hours, followed by UVA irradiation. Afterwards, the medium was replaced with fresh serum-free IMDM, and samples were each treated at different concentrations and cultured for 24 hours at 37° C. in a 5 % CO2 incubator. After removal of the medium, the cells were collected by using QIAzol™ Lysis Reagent (Qiagen), and RNA thereof was isolated according to the protocol of the manufacturer. After quantifying the isolated RNA, cDNA was synthesized with 1 µg of RNA, followed by Real-time PCR (Applied Biosystems, 7500 FAST Real-Time PCR System).

[2] = test system: collagen type I; test: Gene expression of collagen type I (real-time PCR); conditions: CCD-1064Sk, 24 hours, concentration 100 µg/mℓ; control group 100.0
Method: After removal of the medium, the cells were collected by using QIAzol™ Lysis Reagent (Qiagen), and RNA thereof was isolated according to the protocol of the manufacturer. After quantifying the isolated RNA, cDNA was synthesized with 1 µg of RNA, followed by Real-time PCR (Applied Biosystems, 7500 FAST Real-Time PCR System).

[3] = test system: collagen type III; test: Gene expression of collagen type III (real-time PCR); conditions: CCD-1064Sk, 24 hours, concentration 100 µg/mℓ; control group 100.0
Method: Human dermal fibroblasts (CCD-1064Sk, ATCC® CRL-2076™) were inoculated into a 60 mm dish using IMDM (Welgene, Korea), cultured for 24 hours, and then replaced with fresh serum-free IMDM. […] After removal of the medium, the cells were collected by using QIAzol™ Lysis Reagent (Qiagen), and RNA thereof was isolated according to the protocol of the manufacturer. After quantifying the isolated RNA, cDNA was synthesized with 1 µg of RNA, followed by Real-time PCR (Applied Biosystems, 7500 FAST Real-Time PCR System).

SMILES | Mean (gene expression of MMP-1) [1] | Mean (gene expression of collagen type I) [2] | Mean (gene expression of collagen type III) [3]
O=C(O[C@@H]1Cc2c(O)cc(O)cc2O[C@@H]1c1cc(O)c(O)c(O)c1)c1cc(O)c(O)c(O)c1 [EGCG] | 56.7 |  | 
O=C1O[C@H]([C@@H](O)CO)C(O)=C1O [Vitamin C, vitamin C] |  | 134.2 | 135.6
